Measurements: patent publication US11939327B2, “Heterocyclic compounds” (Takeda Pharmaceutical Company Limited, priority 2017, dated 2024)

These compounds were tested against T1, human GluR1 flip (Homo sapiens, UniProt P42261) (assay: AMPA receptor function-enhancing activity using calcium influx as index (CHO-K1/GluR1 flip/stargazin-expressing cells)). Details: CHO-K1, test compound 30 μM with 3 mM glutamic acid, 100% = 3 mM glutamic acid + 300 μM cyclothiazide, 0% = 3 mM glutamic acid alone, read-out: hGluR1 flip/30 μM (%).
T1 construct: expressed in transfected cells; host or cells: CHO-K1
T1 sequence (P42261 19-906 isoform P42261-2 limits assumed): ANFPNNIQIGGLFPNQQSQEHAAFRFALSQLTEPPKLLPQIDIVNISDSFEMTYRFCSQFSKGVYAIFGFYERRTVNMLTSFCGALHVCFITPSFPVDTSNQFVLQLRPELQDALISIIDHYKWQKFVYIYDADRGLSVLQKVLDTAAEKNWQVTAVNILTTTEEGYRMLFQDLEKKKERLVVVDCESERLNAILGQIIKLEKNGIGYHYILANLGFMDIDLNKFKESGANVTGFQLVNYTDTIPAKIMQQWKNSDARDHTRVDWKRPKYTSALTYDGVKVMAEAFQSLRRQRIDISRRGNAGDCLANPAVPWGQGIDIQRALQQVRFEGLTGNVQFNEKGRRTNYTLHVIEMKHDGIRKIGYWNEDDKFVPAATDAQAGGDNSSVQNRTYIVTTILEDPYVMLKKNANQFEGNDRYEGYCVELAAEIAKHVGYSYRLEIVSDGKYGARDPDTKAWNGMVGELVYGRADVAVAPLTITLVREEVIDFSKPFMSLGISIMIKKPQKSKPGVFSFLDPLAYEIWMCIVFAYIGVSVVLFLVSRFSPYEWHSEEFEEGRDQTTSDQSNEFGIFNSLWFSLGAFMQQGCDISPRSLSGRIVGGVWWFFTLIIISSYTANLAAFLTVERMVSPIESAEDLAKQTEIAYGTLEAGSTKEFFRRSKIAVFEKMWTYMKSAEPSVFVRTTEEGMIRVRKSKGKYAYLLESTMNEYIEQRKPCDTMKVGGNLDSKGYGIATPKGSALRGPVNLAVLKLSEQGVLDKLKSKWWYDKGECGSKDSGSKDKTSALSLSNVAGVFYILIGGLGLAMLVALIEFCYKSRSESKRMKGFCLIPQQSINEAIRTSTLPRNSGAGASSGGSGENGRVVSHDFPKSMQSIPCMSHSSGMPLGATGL
T1 sequence (Q9Y698 whole entry partner): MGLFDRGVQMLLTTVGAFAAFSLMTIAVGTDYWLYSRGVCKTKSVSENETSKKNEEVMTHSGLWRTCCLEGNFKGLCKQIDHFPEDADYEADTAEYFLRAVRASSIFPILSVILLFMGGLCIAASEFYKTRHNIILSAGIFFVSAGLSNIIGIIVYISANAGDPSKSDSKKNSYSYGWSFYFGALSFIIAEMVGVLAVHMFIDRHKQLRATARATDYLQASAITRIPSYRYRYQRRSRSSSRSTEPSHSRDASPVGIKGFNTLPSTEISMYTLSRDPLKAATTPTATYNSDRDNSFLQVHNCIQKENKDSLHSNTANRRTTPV
Assay type: cell-based
Text: Experimental Example 1 Measurement method of AMPA receptor function-enhancing activity of compound using calcium influx as index
(1) Construction of Expression Gene
Human GluR1 flip cDNA was amplified by PCR method using forward primer […] (SEQ ID NO: 1) and reverse primer […] (SEQ ID NO: 2) artificially synthesized using human brain-derived cDNA (BD Bioscience) as a template. The amplified product was digested with restriction enzymes EcoRI, NotI (TAKARA SHUZO CO. LTD.) and incorporated into the same site of pcDNA3.1(+) (Invitrogen) to construct pcDNA3.1(+)/human GluR1 flip gene. Human stargazin cDNA was amplified by PCR method using forward primer […] (SEQ ID NO: 3) and reverse primer […] (SEQ ID NO: 4) artificially synthesized using human hippocampus cDNA as a template. The amplified product was digested with restriction enzymes XhoI, BamHI (TAKARA SHUZO CO. LTD.) and incorporated into the same site of pcDNA3.1(−) (Invitrogen) to construct pcDNA3.1 Zeo(−)/human stargazing gene.
(2) Construction of GluR1 Flip/Stargazin Expressing Cell
CHO-K1 cells passaged in a culture medium (Ham's F12 medium (Invitrogen) added with 10% inactivated fetal bovine serum (Morgate) and penicillin, streptomycin (Invitrogen)) were detached using 0.05% trypsin and 0.53 mM EDTA (Invitrogen) diluted with D-PBS(−). The detached cells were suspended in a culture medium, and recovered by centrifugation at 1,000 rpm. The recovered cells were re-suspended in D-PBS(−) and added into 0.4 cm electroporation cuvette (BioRad). pcDNA3.1(+)/human GluR1 flip gene (5 μg) and pcDNA3.1 Zeo(−)/human stargazin gene (15 μg) were added, and introduced into CHO-K1 cells under the conditions of 950 μFd, […] and using Gene Pulser II (BioRad). The introduced cells were cultured overnight in a culture medium. The next day, using a selection medium (culture medium added with zeocin (Invitrogen) at 250 μg/mL), the cells were plated in a 96 well plate at 250 cells/well. The clones showing drug resistance were selected, and GluR1 flip/stargazin expression clones were selected by an assay method shown below using calcium influx as an index.
(3) Measurement Method of AMPA Receptor Function-Enhancing Activity of Compound, Using Calcium Influx as an Index
CHO-K1/GluR1 flip/stargazin-expressing cells were plated on a 384 well black bottom transparent plate, and cultured for 2 days in a CO2 incubator (SANYO ELECTRIC Co. Ltd.) at 37° C. The medium of the cell plate was removed. A calcium indicator (Calcium5 Assay Kit, Molecular Devices) was diluted with an assay buffer (HBSS (Thermo Fisher Scientific), 0.1% BSA (Merck Millipoer) and 10 mM HEPES (Thermo Fisher Scientific)), and 1.25 mM probenecid (Dojindo Laboratories) was added thereto. The mixture prepared above was added at 30 μL/well (100 μL/well in case of 96 wells) to the well, and the well was left standing in 37° C., CO2 incubator for 1 hr. The cell plate was set in CellLux (PerkinElmer), a mixture (15 μL) (50 μL/well in case of 96 wells) of […] glutamic acid (final concentration 3 mM) diluted with an assay buffer and a test compound (test compound concentration 30 μM) was added thereto, and variation in the amount of fluorescence was measured for 3 min. The variation of fluorescence level of a well added with final concentration 3 mM of glutamic acid and 300 μM cyclothiazide (TOCRIS) was defined as 100%, the variation of fluorescence level of a well added with final concentration 3 mM of glutamic acid alone was defined as 0%, and the activity of the compound was calculated by the following formula. activity (%)=(X−C)/(T−C)×100 • T: variation of fluorescence level of well added with final concentration 3 mM of glutamic acid and 300 μM cyclothiazide • C: variation of fluorescence level of well added with final concentration 3 mM of glutamic acid alone • X: variation of fluorescence level of well added with test compound

With COC1CCN(C(=O)c2ccc(-c3nccc4c3nc(C(F)(F)F)n4CC(F)F)cc2F)CC1 [Example 52, (4-(1-(2,2-difluoroethyl)-2-(trifluoromethyl)-1H-imidazo[4,5-c]pyridin-4-yl)-2-fluorophenyl)(4-methoxypiperidin-1-yl)methanone] as the compound, how does the activation at 30 µM read?
Its activation at 30 µM is 67.1%.

Which activation at 30 µM does the source give for C[C@H]1CN(C(=O)c2ccc(-c3cccc4c3nc(C(F)(F)F)n4C)cc2F)CCO1 [Example 11, (2-fluoro-4-(1-methyl-2-(trifluoromethyl)-1H-benzimidazol-4-yl)phenyl)((2S)-2-methylmorpholin-4-yl)methanone] here?
Its activation at 30 µM is 80.3%.

Cn1c(C(F)(F)F)nc2c(-c3ccc(C(=O)N4CCOCC4)c(F)c3)cccc21 [Example 12, (2-fluoro-4-(1-methyl-2-(trifluoromethyl)-1H-benzimidazol-4-yl)phenyl)(morpholin-4-yl)methanone] was tested. Which activation at 30 µM did it give?
The activation at 30 µM was 84.4%.

Cc1cc2c(nc(C(F)(F)F)n2CC(F)F)c(-c2ccc(C(=O)N3CCOCC(F)(F)C3)c(F)c2)n1 [Example 38, (4-(1-(2,2-difluoroethyl)-6-methyl-2-(trifluoromethyl)-1H-imidazo[4,5-c]pyridin-4-yl)-2-fluorophenyl)(6,6-difluoro-1,4-oxazepan-4-yl)methanone] was tested. Which activation at 30 µM did it give?
Its activation at 30 µM is 100%.

Which activation at 30 µM does the source give for O=C(c1ccc(-c2cccc3c2nc(C(F)(F)F)n3CC(F)F)nc1)N1CCOCC(F)(F)C1 [Example 46, (6-(1-(2,2-difluoroethyl)-2-(trifluoromethyl)-1H-benzimidazol-4-yl)pyridin-3-yl)(6,6-difluoro-1,4-oxazepan-4-yl)methanone] here?
Its activation at 30 µM is 77%.

For C[C@@H]1CN(C(=O)c2ccc(-c3nccc4c3nc(C(F)(F)F)n4CC(F)F)cc2F)CCO1 [Example 44, (4-(1-(2,2-difluoroethyl)-2-(trifluoromethyl)-1H-imidazo[4,5-c]pyridin-4-yl)-2-fluorophenyl)((2R)-2-methylmorpholin-4-yl)methanone], which activation at 30 µM is on record?
Its activation at 30 µM is 85.5%.

How did the activation at 30 µM turn out when O=C(c1ccc(-c2nccc3c2nc(C(F)(F)F)n3CC(F)F)c(F)c1F)N1CCOCC1 [Example 42, (4-(1-(2,2-difluoroethyl)-2-(trifluoromethyl)-1H-imidazo[4,5-c]pyridin-4-yl)-2,3-difluorophenyl)(morpholin-4-yl)methanone] was run?
The activation at 30 µM was 83.9%.

How did the activation at 30 µM turn out when CN(CCC#N)C(=O)c1ccc(-c2nccc3c2nc(C(F)(F)F)n3CC(F)F)cc1F [Example 19, N-(2-cyanoethyl)-4-(1-(2,2-difluoroethyl)-2-(trifluoromethyl)-1H-imidazo[4,5-c]pyridin-4-yl)-2-fluoro-N-methylbenzamide] was run?
Its activation at 30 µM is 81%.

For CN(C(=O)c1ccc(-c2nccc3c2nc(C(F)(F)F)n3CC(F)F)cc1F)C1CCOCC1 [Example 28, 4-(1-(2,2-difluoroethyl)-2-(trifluoromethyl)-1H-imidazo[4,5-c]pyridin-4-yl)-2-fluoro-N-methyl-N-(tetrahydro-2H-pyran-4-yl)benzamide], which activation at 30 µM is on record?
Its activation at 30 µM is 97.8%.

Same assay, conditions: test compound 30 μM with 3 mM glutamic acid, 100% = 3 mM glutamic acid + 300 μM cyclothiazide, 0% = 3 mM glutamic acid alone

O=C(c1ccc(-c2cccc3c2nc(C(F)(F)F)n3CC(F)F)cc1)N1CCOC(C(F)F)C1 (stereo not drawn) [Example 22, (4-(1-(2,2-difluoroethyl)-2-(trifluoromethyl)-1H-benzimidazol-4-yl)phenyl)(2-(difluoromethyl)morpholin-4-yl)methanone] was tested. Which “hGluR1 flip/30 μM (%)” value did it give?
Its value is 105.5%.

Which “hGluR1 flip/30 μM (%)” value does the source give for CN(CCC#N)C(=O)c1ccc(-c2nccc3c2nc(C(F)(F)F)n3CC(F)F)cc1F [Example 30, N-(2-cyanoethyl)-4-(1-(2,2-difluoroethyl)-2-(trifluoromethyl)-1H-imidazo[4,5-c]pyridin-4-yl)-2-fluoro-N-methylbenzamide] here?
Its value is 92.6%.

With O=C(c1ccc(-c2cccc3c2nc(C(F)(F)F)n3CC(F)F)cc1)N1CCOC(C(F)F)C1 (stereo not drawn) [Example 23, (4-(1-(2,2-difluoroethyl)-2-(trifluoromethyl)-1H-benzimidazol-4-yl)phenyl)(2-(difluoromethyl)morpholin-4-yl)methanone] as the compound, how does the “hGluR1 flip/30 μM (%)” value read?
Its value is 103%.
